The source of these data is patent US20240198337A1, “Bone Marrow on a Chip” (NEW YORK UNIVERSITY, priority 2021, published 2024).

Test [1] concerns ETV6-RUNX1+ REH and Ph+ SUP-B15 human B-ALL cell lines. Nature of the test: Chemo-resistance of engineered human B-ALL BM niches to increasing doses of vincristine (Leukemia-on-a-Chip). Type of test: cell-based. As to conditions: B-ALL co-cultured with niche cells. From the text:
FIG. 4A through FIG. 4G depicts modeling the leukemic bone marrow (BM) niche in a Leukemia-on-a-Chip platform. […] (FIG. 4C) The Hematoxylin and Eosin (H&E) staining image of the in vivo murine leukemic BM niche, with the enlarged area from showing the co-localization of B-ALL cells respectively within the perivascular and endosteal niches. (FIG. 4D) The chemo-resistance was compared between the engineered human BM niches of ETV6-RUNX1+ REH and Ph+ SUP-B15 B-ALL. Each drug concentration had >3 experimental replicates. (FIG. 4E) The cytokine profiles from two B-ALL blasts with and without niche cells were quantified using membrane-based ELISA analysis. (FIG. 4F) The quantification of nuclear (nuc)/cytoplasmic (cyto) ratio of NF-κB in REH and SUP B-ALL within their respective niche models. The ratios for REH and SUP were manually measured from 3 experimental replicates (N>150). […]
The outcome of drugs was defined by the viability of B-ALL cells as a cytotoxic end point after drug treatment. […] The cell viability was quantitatively determined by using Calcein-AM (Thermo Fischer Scientific) and DAPI, which respectively stained the live and dead cells. […] Afterward, cells were observed under a fluorescence microscope, and cellular viability was quantitatively measured by counting the number of objects in the green (live cells) and red (dead cells) channels. […]

For the next test, the system named is murine Ph+ B-ALL cells. As to the kind of experiment: Drug resistance testing: B-ALL cell viability in 3D hydrogel devices (Calcein-AM/DAPI). Type of test: cell-based. As to conditions: NIL 1 μM, PRE 1 μM, VCR 0.1 μM; for B-ALL drug-induced cell death (chemo-resistance): presence of niche cells. On the procedure: The outcome of drugs was defined by the viability of B-ALL cells as a cytotoxic end point after drug treatment. B-ALL cells were cultured alone or co-cultured with niche cells in 3D hydrogel devices for 24 hr, and then incubated with 1 μM nilotinib (NIL, Cayman Chemical), 1 μM prednisone (PRE, Sigma), and 0.1 μM vincristine (VCR, Sigma) for 48 hr. The cell viability was quantitatively determined by using Calcein-AM (Thermo Fischer Scientific) and DAPI, which respectively stained the live and dead cells. Briefly, cells were rinsed thrice with PBS and incubated with Calcein-AM and DAPI ([…] and 5 μg/mL in PBS or medium) solution for 30 min at 37° C., followed by a final rinse with PBS. Afterward, cells were observed under a fluorescence microscope, and cellular viability was quantitatively measured by counting the number of objects in the green (live cells) and red (dead cells) channels. Untreated groups of B-ALL cells were used as controls to benchmark the drug resistance of different groups.

The next test has as its system REH B-ALL blasts. Nature of the test: REH viability cultured with hematopoietic cells under VCR treatment. It is filed as cell-based, human. Particulars: 48 hr treatment of 20 nM VCR; co-culture with CD34+ HSPC-derived hematopoietic cells. The source says: FIG. 13A through FIG. 13L depict the results of niche cells functioning disparately to regulate leukemia progression. (FIG. 13A) Membrane-based ELISA analysis of CXCL12 secretion of ECs (Top left) and MSCs (Top right). Western blotting of CXCL12 expression of ECs (Bottom left) and MSCs (Bottom right). (FIG. 13B) VCAM-1 expression of ECs and the quantification result (N>200). (FIG. 13C) OPN expression of 2D cultured MSCs and the quantification result (N>200). (FIG. 13D) The correlation between distance of B-ALL to MSCs and dye retaining ability of B-ALL (N>120). B-ALL with lower DiD intensity was excluded as indicated by the dash line. (FIG. 13E) and (FIG. 13F) The flow cytometric images showing DiD dye retained in B-ALL, i.e. low (Lo), middle (Mid), and high (Hi) intensity. (FIG. 13G) The representative images showing p21 expression in B-ALL located in the perivascular and endosteal niches (N=54). (FIG. 13H) B-ALL viability in the two niches treated with different drugs. (FIG. 13I) NF-κB activation in REH after co-cultured with hematopoietic cells. […] (FIG. 13L) The quantified number of CD34+ cells. […]
The contributing mechanisms from hematopoietic cells was then investigated. […] Furthermore, healthy bone marrow mononuclear cells were cultured with and without REH blasts in the leukemia systems for day 1 and day 9 and the number of CD34+ cells was quantified. […]

For the molecule `CC[C@]1(O)C[C@H]2CN(CCc3c([nH]c4ccccc34)[C@@](C(=O)OC)(c3cc4c(cc3OC)N(C=O)[C@H]3[C@@](O)(C(=O)OC)[C@H](OC(C)=O)[C@]5(CC)C=CCN6CC[C@]43[C@@H]65)C2)C1` [vincristine], in test [1], the “chemotherapy sensitivity (chemo-resistance) of REH versus SUP BM niches” value was “SUP B-ALL co-cultured with niche cells showing more resistant to VCR than REH co-cultured with niche cells”. For the same molecule, in the test on murine Ph+ B-ALL cells (2-day treatment), the “viability of B-ALL cells in perivascular versus endosteal niche” value was “a stronger dormancy and chemo-resistance of B-ALL cells in the endosteal niche”. Further, the “B-ALL eradication (viability)” value in the test on murine Ph+ B-ALL cells (absence of niche cells, 48 hr) is listed as “efficient B-ALL eradication”. Also, the “B-ALL drug-induced cell death (chemo-resistance)” value is recorded as “chemo-resistance phenomenon was confirmed” in the test with murine Ph+ B-ALL cells (48 hr) and “partial rescue of drug-induced cell death” in the test with murine Ph+ B-ALL cells (48 hr, listed as VCR). Further, the “REH viability / chemo-resistance with hematopoietic cells” value in the test with REH B-ALL blasts was “hematopoietic cells also promoted NF-κB activation in B-ALL cells and chemo-resistance to VCR treatment”.
